Values quoted from earlier work as cited in patent publication US6569898B2, “Use of (Z) -2-cyano-3-hydroxy-but-2-enoic acid-(4′-trifluoromethylphenyl)-amide for treating multiple sclerosis” (Aventis Pharmaceuticals Inc., priority 2001, dated 2003).

Columns and labels:
[1] = target: dihydrooate dehydrogenase (Homo sapiens, UniProt Q02127); settings: enzyme essential for the synthesis of pyrimidines
[2] = test system: immune cells and cell lines

Sequence of dihydrooate dehydrogenase (Q02127 whole entry): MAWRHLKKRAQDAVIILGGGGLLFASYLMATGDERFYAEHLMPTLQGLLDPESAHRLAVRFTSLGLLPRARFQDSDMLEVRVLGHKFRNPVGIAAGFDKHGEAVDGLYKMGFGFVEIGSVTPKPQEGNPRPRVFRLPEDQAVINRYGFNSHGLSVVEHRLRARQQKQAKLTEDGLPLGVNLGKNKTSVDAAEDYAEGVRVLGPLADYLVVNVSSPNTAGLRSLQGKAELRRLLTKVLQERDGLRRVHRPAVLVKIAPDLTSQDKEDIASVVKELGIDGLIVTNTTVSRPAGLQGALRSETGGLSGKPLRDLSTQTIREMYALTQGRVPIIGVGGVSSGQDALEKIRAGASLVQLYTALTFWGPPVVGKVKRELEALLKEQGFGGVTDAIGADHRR

Structure (SMILES): C/C(O)=C(\C#N)C(=O)Nc1ccc(C(F)(F)F)cc1 [Teriflunomide, (Z)-2-cyano-3-hydroxy-but-2-enoic acid-(4′-trifluoromethylphenyl)-amide]
- inhibition of the enzyme dihydrooate dehydrogenase [1]: inhibits
- antiproliferative effects on a wide variety of immune cells and cell lines [2]: antiproliferative effects
